Structures are written as SMILES. Read-outs that look alike come from different tables or passages of the source.

The source of these data is patent US6586393B2, “Antibiotics GE 23077, pharmaceutically acceptable salts and compositions, and use thereof” (priority 2000, dated 2003).

In one data set the test system is M. catarrhalis. In words: Activity of concentrated HPLC fractions of the complex against M. catarrhalis. Format: cell-based, Moraxella catarrhalis. Conditions: eluates of HPLC fractionation of the complex, concentrated under vacuum.
Data set [1] in a line: Conversion of factors A2 and B2 into A1 and B1 in DMSO (NMR). The format is physicochemical. Conditions: room temperature. An excerpt: The GE23077 complex is constituted of two couples of isomers: factors A1, A2 and factors B1, B2. It was observed that the individual pure Factor A1 and Factor A2, when kept in water solution or in mixtures of water miscible solvents and water solutions, reach an equilibrium state between them. […] The equilibration rate was accelerated at acidic and basic pHs. […] Accordingly, if recorded after complete conversion, the spectra relating to factors A2 and B2 correspond to the ones of the factors A1 and B1, respectively.

A further data set has as its target T1, E. coli RNA polymerase (Escherichia coli, UniProt P0A8T7+P0A8V2).
T1 construct: purchased Epicentre Technology; Madison Wis
In words: Inhibition of RNA polymerase, cell free transcription assay (3H-UTP incorporation). Format: biochemical. Conditions: 37° C., 15 minutes. As to the method:
The inhibition of RNA polymerase was determined in a cell free transcription assay performed in standard U-bottom 96-well plates. The [H^3]-UTP incorporation in RNA was measured in the material precipitated upon addition of trichloroacetic acid (TCA). The reaction mixture contained 50 mM Tris-HCl (pH8), 50 mM KCl, 10 mM MgCl2, 0.1 mM EDTA, 5 mM dithiothreitol (DTT), 10 μg/ml BSA, 20: g/ml calf thymus DNA, 1 mM ATP, 1 mM CTP, 1 mM GTP, 0.5 mCi ^3H-UTP and 0.5 U of E. coli RNA polymerase enzyme (Epicentre Technology; Madison Wis.). 5 μl of the tested solution were added to 45 μl of reaction mixture, incubated at 37° C. for 15 minutes and then quenched with 150 μl of ice-cold 10% (w/v) TCA. After 30 min in ice, the well content was collected on glass-fiber filters (Filtermat A, Wallac) using a 96 wells cell harvester (Wallac) and radioactivity was determined in a β-Plate scintillation counter (Wallac). Count per min (CPM) values are transformed in % of RNA polymerase inhibition by using the following formula:
% of RNA polymerase=100−[(CPM compound−CPM blank)/(CPM control−CPM blank)]*100
where: CPM compound is CPM in well with compound; CPM blank is CPM average in wells without enzyme template and CPM control is CPM average in wells without compound.

T1 sequence (P0A8V2 whole entry): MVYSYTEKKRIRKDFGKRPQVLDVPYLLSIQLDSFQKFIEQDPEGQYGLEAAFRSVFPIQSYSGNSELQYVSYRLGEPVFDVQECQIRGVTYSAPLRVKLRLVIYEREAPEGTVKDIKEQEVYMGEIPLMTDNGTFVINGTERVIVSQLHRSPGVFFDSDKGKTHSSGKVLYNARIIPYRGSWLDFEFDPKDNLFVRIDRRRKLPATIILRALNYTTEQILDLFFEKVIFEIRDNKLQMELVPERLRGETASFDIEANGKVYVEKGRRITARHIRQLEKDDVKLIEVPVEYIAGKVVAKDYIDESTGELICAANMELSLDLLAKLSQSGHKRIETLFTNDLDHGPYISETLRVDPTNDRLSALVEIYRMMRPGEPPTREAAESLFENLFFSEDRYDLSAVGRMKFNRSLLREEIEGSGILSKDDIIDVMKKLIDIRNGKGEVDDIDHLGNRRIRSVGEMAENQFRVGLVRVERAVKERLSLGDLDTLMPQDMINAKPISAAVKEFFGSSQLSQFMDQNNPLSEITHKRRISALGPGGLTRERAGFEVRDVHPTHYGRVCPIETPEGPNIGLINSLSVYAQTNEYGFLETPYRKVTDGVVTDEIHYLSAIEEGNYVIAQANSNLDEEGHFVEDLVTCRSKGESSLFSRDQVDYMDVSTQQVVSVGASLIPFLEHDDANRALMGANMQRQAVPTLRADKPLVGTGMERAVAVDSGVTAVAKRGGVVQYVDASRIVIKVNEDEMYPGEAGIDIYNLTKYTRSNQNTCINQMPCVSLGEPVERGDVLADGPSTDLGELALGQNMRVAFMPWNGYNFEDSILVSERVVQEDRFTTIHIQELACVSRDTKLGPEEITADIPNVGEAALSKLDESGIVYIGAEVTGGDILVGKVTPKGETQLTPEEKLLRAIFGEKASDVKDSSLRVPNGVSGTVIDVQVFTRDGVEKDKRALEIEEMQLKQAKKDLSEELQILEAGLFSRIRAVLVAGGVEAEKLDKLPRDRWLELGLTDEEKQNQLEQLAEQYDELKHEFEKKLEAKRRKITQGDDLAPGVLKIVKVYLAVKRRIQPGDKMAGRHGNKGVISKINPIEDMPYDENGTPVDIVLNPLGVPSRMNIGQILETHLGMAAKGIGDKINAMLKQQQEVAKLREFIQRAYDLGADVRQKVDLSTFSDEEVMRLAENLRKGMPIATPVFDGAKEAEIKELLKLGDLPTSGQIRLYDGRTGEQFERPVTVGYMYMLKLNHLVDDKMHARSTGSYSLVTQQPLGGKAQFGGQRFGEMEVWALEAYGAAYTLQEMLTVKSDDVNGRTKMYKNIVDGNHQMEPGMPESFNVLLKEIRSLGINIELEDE
T1 sequence (P0A8T7 whole entry): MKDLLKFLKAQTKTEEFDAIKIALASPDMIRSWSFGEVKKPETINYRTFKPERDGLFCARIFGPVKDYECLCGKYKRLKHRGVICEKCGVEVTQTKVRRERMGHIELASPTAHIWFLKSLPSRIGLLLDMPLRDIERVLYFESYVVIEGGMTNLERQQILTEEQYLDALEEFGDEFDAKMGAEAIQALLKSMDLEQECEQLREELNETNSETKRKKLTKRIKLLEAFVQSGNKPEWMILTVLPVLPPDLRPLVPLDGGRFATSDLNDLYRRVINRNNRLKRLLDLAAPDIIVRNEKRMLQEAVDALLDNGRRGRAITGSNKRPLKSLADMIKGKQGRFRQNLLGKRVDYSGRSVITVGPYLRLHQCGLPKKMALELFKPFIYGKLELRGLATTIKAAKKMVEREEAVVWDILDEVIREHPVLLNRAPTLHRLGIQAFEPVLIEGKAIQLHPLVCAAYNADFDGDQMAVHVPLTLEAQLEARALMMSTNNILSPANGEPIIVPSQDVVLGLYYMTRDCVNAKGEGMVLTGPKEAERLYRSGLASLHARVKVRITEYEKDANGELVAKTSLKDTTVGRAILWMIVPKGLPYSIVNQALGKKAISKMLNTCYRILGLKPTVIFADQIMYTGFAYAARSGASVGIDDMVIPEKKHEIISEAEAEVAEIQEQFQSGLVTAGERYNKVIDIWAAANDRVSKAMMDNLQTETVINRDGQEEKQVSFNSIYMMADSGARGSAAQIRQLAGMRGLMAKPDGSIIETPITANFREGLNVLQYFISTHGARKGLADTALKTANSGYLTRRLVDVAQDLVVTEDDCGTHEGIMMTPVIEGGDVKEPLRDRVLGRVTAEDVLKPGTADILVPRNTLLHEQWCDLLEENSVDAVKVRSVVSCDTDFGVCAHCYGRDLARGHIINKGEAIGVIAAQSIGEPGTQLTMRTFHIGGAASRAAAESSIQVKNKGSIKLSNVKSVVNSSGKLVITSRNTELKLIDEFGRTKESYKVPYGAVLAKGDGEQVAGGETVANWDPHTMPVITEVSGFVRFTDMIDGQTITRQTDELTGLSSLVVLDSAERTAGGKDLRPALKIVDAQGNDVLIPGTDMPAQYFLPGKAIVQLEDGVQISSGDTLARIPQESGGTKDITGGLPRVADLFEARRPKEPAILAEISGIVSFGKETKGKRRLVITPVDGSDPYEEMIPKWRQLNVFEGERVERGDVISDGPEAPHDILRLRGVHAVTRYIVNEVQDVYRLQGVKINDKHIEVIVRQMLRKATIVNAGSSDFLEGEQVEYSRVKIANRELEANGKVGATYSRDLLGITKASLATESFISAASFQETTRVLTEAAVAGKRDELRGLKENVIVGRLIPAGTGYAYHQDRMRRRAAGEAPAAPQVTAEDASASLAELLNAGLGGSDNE
T1 sequence (P0A7Z4 whole entry partner): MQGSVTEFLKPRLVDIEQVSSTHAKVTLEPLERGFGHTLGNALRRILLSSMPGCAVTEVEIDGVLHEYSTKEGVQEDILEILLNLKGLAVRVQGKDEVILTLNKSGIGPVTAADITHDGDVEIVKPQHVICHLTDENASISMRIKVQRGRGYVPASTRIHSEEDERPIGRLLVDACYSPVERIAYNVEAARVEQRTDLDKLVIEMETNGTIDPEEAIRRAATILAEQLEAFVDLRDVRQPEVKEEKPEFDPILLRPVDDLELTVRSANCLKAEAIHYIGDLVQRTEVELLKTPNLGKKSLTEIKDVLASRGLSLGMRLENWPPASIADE
T1 sequence (P0A800 whole entry partner): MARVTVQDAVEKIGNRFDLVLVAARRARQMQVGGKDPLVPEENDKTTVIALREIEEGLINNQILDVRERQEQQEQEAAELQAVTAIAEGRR

Take `CC(C)CC(=O)NCC1NC(=O)C(C(=O)O)NC(=O)C(O)CNC(=O)C(C(C)O)NC(=O)C(C(O)C(O)C(N)=O)NC(=O)C(C(C)C)NC(=O)C(CO)NC1=O` (single isomer, unassigned) [Factor B2]: the “Inhibition of M. catarrhalis by HPLC fractions containing the separated factors” value in the data set on M. catarrhalis is listed as “inhibited the test microorganism”. Moreover, the “Time for full conversion into factor A1 / B1 (in words)” value in data set [1] is listed as “few minutes”. Besides, at E. coli RNA polymerase (read-out: IC50 of E. coli RNA polymerase (converted)), the concentration for half-maximal inhibition (IC50) was 24.8 nM.

As to `CC=C(C)C(=O)NCC1NC(=O)C(C(=O)O)NC(=O)C(O)CNC(=O)C(C(C)O)NC(=O)C(C(O)C(O)C(N)=O)NC(=O)C(C(C)C)NC(=O)C(CO)NC1=O` (single isomer, unassigned) [Factor A2], in the data set on M. catarrhalis, the “Inhibition of M. catarrhalis by HPLC fractions containing the separated factors” value was “inhibited the test microorganism”. Further, the “Time for full conversion into factor A1 / B1” value in data set [1] worked out at 12 h. The compound further had an IC50 against E. coli RNA polymerase (IC50 of E. coli RNA polymerase) of 43.5 nM.

As for `CC(C)CC(=O)NCC1NC(=O)C(C(=O)O)NC(=O)C(O)CNC(=O)C(C(C)O)NC(=O)C(C(O)C(O)C(N)=O)NC(=O)C(C(C)C)NC(=O)C(CO)NC1=O` (single isomer, unassigned) [Factor B1], the “Inhibition of M. catarrhalis by HPLC fractions containing the separated factors” value with M. catarrhalis is “inhibited the test microorganism”. On E. coli RNA polymerase (IC50 of E. coli RNA polymerase), this compound had a concentration for half-maximal inhibition (IC50) of 124 nM.

`CC=C(C)C(=O)NCC1NC(=O)C(C(=O)O)NC(=O)C(O)CNC(=O)C(C(C)O)NC(=O)C(C(O)C(O)C(N)=O)NC(=O)C(C(C)C)NC(=O)C(CO)NC1=O` (single isomer, unassigned) [Factor A1]: the “Inhibition of M. catarrhalis by HPLC fractions containing the separated factors” value with M. catarrhalis was “inhibited the test microorganism”. On E. coli RNA polymerase (IC50 of E. coli RNA polymerase), the IC50 was 187 nM.
